Measured values taken from PubChem BioAssay AID1919009 (Molecular Pharmacology Branch, DTP, NCI, 2023).
Where “and” joins values, the source holds several entries; their conditions need not be identical. Equal values may be shown once.

Tested on: K24384-001-R-PDC complex spheroid growth
Assay: Anticancer human tumor K24384-001-R-PDC patient-derived pancreatic adenocarcinoma cell line growth inhibition [AhR]
Settings: for viability, T/C: stronger effect = lower value
Procedure, shortened: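 Spheroids combined tumor cells with HUVEC endothelial cells and human MSCs as stroma. AhR antagonists were paired with standard or investigational drugs, each dosed in half-log steps down from near clinical Cmax, or from 10 microM where Cmax was unknown.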

[1] = curve of first compound, second compound 0.1 µM
[2] = curve of first compound, second compound 0.316 µM
[3] = curve of first compound, second compound 1 µM
[4] = curve of first compound, second compound 3.16 µM
[5] = curve of first compound, second compound 10 µM
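Throughout, for viability, T/C: percent of DMSO vehicle-treated spheroid viability set as 100%.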

CCc1c2c(nc3ccc(O)cc13)-c1cc3c(c(=O)n1C2)COC(=O)[C@]3(O)CC + CC(CO)NC(=O)c1cc(-c2ccc(Cl)cc2)nn(-c2cnn(C)c2)c1=O gave an IC50 [1] of 9.38 nM, an IC50 [2] of 6.85 nM and an IC50 [3] of 8.65 nM. For the same compound, the IC50 [4] was 11.5 nM, the IC50 [5] was 19.8 nM and the viability, T/C (second compound 0.1 µM, first compound 0.000949 µM) was 53.8%. For the same compound, the viability, T/C (second compound 0.1 µM, first compound 0.003 µM) was 58.1%, the viability, T/C (second compound 0.1 µM, first compound 0.00949 µM) was 52.2% and the viability, T/C (second compound 0.1 µM, first compound 0.03 µM) was 36.1%. The viability, T/C (second compound 0.1 µM, first compound 0.0949 µM) was 40.8%, the viability, T/C (second compound 0.1 µM, first compound 0.3 µM) was 26.7% and the viability, T/C (second compound 0.316 µM, first compound 0.000949 µM) was 70.6%. It also gave a viability, T/C (second compound 0.316 µM, first compound 0.003 µM) of 53.1%, a viability, T/C (second compound 0.316 µM, first compound 0.00949 µM) of 48.9% and a viability, T/C (second compound 0.316 µM, first compound 0.03 µM) of 38.2%. The viability, T/C (second compound 0.316 µM, first compound 0.0949 µM) was 34.6%, the viability, T/C (second compound 0.316 µM, first compound 0.3 µM) was 25% and the viability, T/C (second compound 1 µM, first compound 0.000949 µM) was 63.5%. It also gave a viability, T/C (second compound 1 µM, first compound 0.003 µM) of 56.4%, a viability, T/C (second compound 1 µM, first compound 0.00949 µM) of 51.5% and a viability, T/C (second compound 1 µM, first compound 0.03 µM) of 34.8%. For the same compound, the viability, T/C (second compound 1 µM, first compound 0.0949 µM) was 27.9%, the viability, T/C (second compound 1 µM, first compound 0.3 µM) was 21% and the viability, T/C (second compound 3.16 µM, first compound 0.000949 µM) was 55.8%. For the same compound, the viability, T/C (second compound 3.16 µM, first compound 0.003 µM) was 52.6%, the viability, T/C (second compound 3.16 µM, first compound 0.00949 µM) was 54.6% and the viability, T/C (second compound 3.16 µM, first compound 0.03 µM) was 34.6%. For the same compound, the viability, T/C (second compound 3.16 µM, first compound 0.0949 µM) was 26.6%, the viability, T/C (second compound 3.16 µM, first compound 0.3 µM) was 19.3% and the viability, T/C (second compound 10 µM, first compound 0.000949 µM) was 63.9%. It also gave a viability, T/C (second compound 10 µM, first compound 0.003 µM) of 54.4%, a viability, T/C (second compound 10 µM, first compound 0.00949 µM) of 57.3% and a viability, T/C (second compound 10 µM, first compound 0.03 µM) of 47%. It also gave a viability, T/C (second compound 10 µM, first compound 0.0949 µM) of 30.3% and a viability, T/C (second compound 10 µM, first compound 0.3 µM) of 19.4%.

Compound NS(=O)(=O)OCC1CC(n2ccc3c(NC4CCc5ccccc54)ncnc32)CC1O (configuration not stated) + CC(CO)NC(=O)c1cc(-c2ccc(Cl)cc2)nn(-c2cnn(C)c2)c1=O has an IC50 [1] of 984 nM, an IC50 [2] of 811 nM and an IC50 [3] of 860 nM. For the same compound, the IC50 [4] was 473 nM, the IC50 [5] was 642 nM and the viability, T/C (second compound 0.1 µM, first compound 0.0316 µM) was 114%. It also gave a viability, T/C (second compound 0.1 µM, first compound 0.1 µM) of 123%, a viability, T/C (second compound 0.1 µM, first compound 0.316 µM) of 116% and a viability, T/C (second compound 0.1 µM, first compound 1 µM) of 49%. The viability, T/C (second compound 0.1 µM, first compound 3.16 µM) was 28.7%, the viability, T/C (second compound 0.1 µM, first compound 10 µM) was 25.3% and the viability, T/C (second compound 0.316 µM, first compound 0.0316 µM) was 132%. For the same compound, the viability, T/C (second compound 0.316 µM, first compound 0.1 µM) was 147%, the viability, T/C (second compound 0.316 µM, first compound 0.316 µM) was 89.4% and the viability, T/C (second compound 0.316 µM, first compound 1 µM) was 45.6%. For the same compound, the viability, T/C (second compound 0.316 µM, first compound 3.16 µM) was 26.6%, the viability, T/C (second compound 0.316 µM, first compound 10 µM) was 22.1% and the viability, T/C (second compound 1 µM, first compound 0.0316 µM) was 152%. The viability, T/C (second compound 1 µM, first compound 0.1 µM) was 162%, the viability, T/C (second compound 1 µM, first compound 0.316 µM) was 72% and the viability, T/C (second compound 1 µM, first compound 1 µM) was 38.2%. For the same compound, the viability, T/C (second compound 1 µM, first compound 3.16 µM) was 32.9%, the viability, T/C (second compound 1 µM, first compound 10 µM) was 22.5% and the viability, T/C (second compound 3.16 µM, first compound 0.0316 µM) was 125%. The viability, T/C (second compound 3.16 µM, first compound 0.1 µM) was 128%, the viability, T/C (second compound 3.16 µM, first compound 0.316 µM) was 60.6% and the viability, T/C (second compound 3.16 µM, first compound 1 µM) was 38.8%. It also gave a viability, T/C (second compound 3.16 µM, first compound 3.16 µM) of 28.6%, a viability, T/C (second compound 3.16 µM, first compound 10 µM) of 23.1% and a viability, T/C (second compound 10 µM, first compound 0.0316 µM) of 87.1%. The viability, T/C (second compound 10 µM, first compound 0.1 µM) was 79.8%, the viability, T/C (second compound 10 µM, first compound 0.316 µM) was 59.1% and the viability, T/C (second compound 10 µM, first compound 1 µM) was 44.7%. The viability, T/C (second compound 10 µM, first compound 3.16 µM) was 29.6% and the viability, T/C (second compound 10 µM, first compound 10 µM) was 24.6%.

For O=C(c1cc(Cc2n[nH]c(=O)c3ccccc23)ccc1F)N1CCN(C(=O)C2CC2)CC1, the viability, T/C (compound 0.0316 µM) was 104% and 103% and 116%, the viability, T/C (compound 0.1 µM) was 132% and 100% and 105% and the viability, T/C (compound 0.316 µM) was 105% and 95.4% and 115%. The viability, T/C (compound 1 µM) was 95.4% and 94.5% and 90.4%, the viability, T/C (compound 3.16 µM) was 88.2% and 96.2% and 90.5% and the viability, T/C (compound 10 µM) was 82.8% and 62.4% and 76%. It also gave an IC50 (curve of compound) greater than 10000 nM.
